Drawing on patent US20110136666A1, “CHEMICAL COMPOUNDS” (SYNGENTA CROP PROTECTION, INC., priority 2008, published 2011), this text covers pest or weed control for 4 compounds.

The subject of one test is Alopecurus myosuroides (ALOMY). Nature of the test: Pre-emergence biological efficacy, glasshouse pot test. The test is classed as in vivo. As to conditions: 312 h, 1000 g/ha, after 13 days, 100=total damage, 0=no damage, read-out: Percentage damage caused to weed species ALOMY. The procedure: (§1) Seeds of Alopecurus myosuroides (ALOMY), Setaria faberi (SETFA), Echinochloa crus-galli (ECHCG), Solanum nigrum (SOLNI), Amaranthus retroflexus (AMARE) and Ipomea hederaceae (IPOHE) were sown in standard soil in pots. After cultivation for one day under controlled conditions in a glasshouse (at 24/16° C., day/night; 14 hours light; 65% humidity), the plants were sprayed with an aqueous spray solution derived from the formulation of the technical active ingredient in acetone/water (50:50) solution containing 0.5% Tween 20 (polyoxyethylene sorbitan monolaurate, CAS RN 9005-64-5) to give a final dose of 250 or 1000 g/ha of test compound.
(§2) The test plants were then grown under controlled conditions in the glasshouse (at 24/16° C., day/night; 14 hours light; 65% humidity) and watered twice daily. After 13 days the test was evaluated (100=total damage to plant; 0=no damage to plant).
For the compound `COC(=O)c1nc(-c2ccoc2)nc(N)c1Cl` [Compound 2-34, 4-Amino-5-chloro-2-(furan-3-yl)-6-methoxycarbonyl pyrimidine], the pest or weed control at 1000 g/ha is 0%.
Same read-out and setting: the same measure for `COC(=O)c1nc(-c2cc3ccccc3s2)nc(N)c1Cl` [Compound 2-54, 4-Amino-2-(benzothiophen-2-yl)-5-chloro-6-methoxycarbonyl pyrimidine]: 20%; for `COC(=O)c1nc(-c2csc3ccccc23)nc(N)c1Cl` [Compound 2-56, 4-Amino-2-(benzothiophen-3-yl)-5-chloro-6-methoxycarbonyl pyrimidine]: 0%; for `COC(=O)c1nc(-c2csc3ccc(C)cc23)nc(N)c1Cl` [Compound 2-57, 4-amino-5-chloro-6-methoxycarbonyl-2-(5-methylbenz-[b]thiophen-3-yl)-pyrimidine]: 0%.

Another test relates to Amaranthus retroflexus (AMARE). The test is described as above. It counts as in vivo. Particulars: 312 h, 1000 g/ha, after 13 days, 100=total damage, 0=no damage, read-out: Percentage damage caused to weed species AMARE. The procedure: as §1, §2
For the compound `COC(=O)c1nc(-c2ccoc2)nc(N)c1Cl` [Compound 2-34, 4-Amino-5-chloro-2-(furan-3-yl)-6-methoxycarbonyl pyrimidine], the pest or weed control at 1000 g/ha was determined as 0%.
Still for that read-out and setting: in the case of `COC(=O)c1nc(-c2cc3ccccc3s2)nc(N)c1Cl` [Compound 2-54, 4-Amino-2-(benzothiophen-2-yl)-5-chloro-6-methoxycarbonyl pyrimidine] it was 70%; in that of `COC(=O)c1nc(-c2csc3ccccc23)nc(N)c1Cl` [Compound 2-56, 4-Amino-2-(benzothiophen-3-yl)-5-chloro-6-methoxycarbonyl pyrimidine], 60%.
Take `COC(=O)c1nc(-c2csc3ccc(C)cc23)nc(N)c1Cl` [Compound 2-57, 4-amino-5-chloro-6-methoxycarbonyl-2-(5-methylbenz-[b]thiophen-3-yl)-pyrimidine]: the pest or weed control at 1000 g/ha is 0%.

For the next test, the system named is Echinochloa crus-galli (ECHCG). Described as above. It counts as in vivo. Particulars: 312 h, 1000 g/ha, after 13 days, 100=total damage, 0=no damage, read-out: Percentage damage caused to weed species ECHCG. The procedure: as §1, §2
For `COC(=O)c1nc(-c2ccoc2)nc(N)c1Cl` [Compound 2-34, 4-Amino-5-chloro-2-(furan-3-yl)-6-methoxycarbonyl pyrimidine], the pest or weed control at 1000 g/ha came out at 0%.
On the same count and under the same terms, the same measure for `COC(=O)c1nc(-c2cc3ccccc3s2)nc(N)c1Cl` [Compound 2-54, 4-Amino-2-(benzothiophen-2-yl)-5-chloro-6-methoxycarbonyl pyrimidine]: 70%; for `COC(=O)c1nc(-c2csc3ccccc23)nc(N)c1Cl` [Compound 2-56, 4-Amino-2-(benzothiophen-3-yl)-5-chloro-6-methoxycarbonyl pyrimidine]: 0%.
Turning to `COC(=O)c1nc(-c2csc3ccc(C)cc23)nc(N)c1Cl` [Compound 2-57, 4-amino-5-chloro-6-methoxycarbonyl-2-(5-methylbenz-[b]thiophen-3-yl)-pyrimidine], the pest or weed control at 1000 g/ha was determined as 0%.

Another test deals with Ipomea hederaceae (IPOHE). Described as above. It counts as in vivo. Particulars: Ipomoea hederacea, 312 h, 1000 g/ha, after 13 days, 100=total damage, 0=no damage, read-out: Percentage damage caused to weed species IPOHE. The protocol:
as §1, §2
Turning to `COC(=O)c1nc(-c2ccoc2)nc(N)c1Cl` [Compound 2-34, 4-Amino-5-chloro-2-(furan-3-yl)-6-methoxycarbonyl pyrimidine], the pest or weed control at 1000 g/ha worked out at 0%.
Still for that read-out and setting: in the case of `COC(=O)c1nc(-c2cc3ccccc3s2)nc(N)c1Cl` [Compound 2-54, 4-Amino-2-(benzothiophen-2-yl)-5-chloro-6-methoxycarbonyl pyrimidine] it was 0%; in that of `COC(=O)c1nc(-c2csc3ccccc23)nc(N)c1Cl` [Compound 2-56, 4-Amino-2-(benzothiophen-3-yl)-5-chloro-6-methoxycarbonyl pyrimidine], 0%; in that of `COC(=O)c1nc(-c2csc3ccc(C)cc23)nc(N)c1Cl` [Compound 2-57, 4-amino-5-chloro-6-methoxycarbonyl-2-(5-methylbenz-[b]thiophen-3-yl)-pyrimidine], 0%.

A further test deals with Setaria faberi (SETFA). Described as above. The test is classed as in vivo. As to conditions: 312 h, 1000 g/ha, after 13 days, 100=total damage, 0=no damage, read-out: Percentage damage caused to weed species SETFA. The procedure: as §1, §2
For `COC(=O)c1nc(-c2ccoc2)nc(N)c1Cl` [Compound 2-34, 4-Amino-5-chloro-2-(furan-3-yl)-6-methoxycarbonyl pyrimidine], the pest or weed control at 1000 g/ha was 0%.
With `COC(=O)c1nc(-c2cc3ccccc3s2)nc(N)c1Cl` [Compound 2-54, 4-Amino-2-(benzothiophen-2-yl)-5-chloro-6-methoxycarbonyl pyrimidine], the pest or weed control at 1000 g/ha is 20%.
The same measure, in the same setting: in the case of `COC(=O)c1nc(-c2csc3ccccc23)nc(N)c1Cl` [Compound 2-56, 4-Amino-2-(benzothiophen-3-yl)-5-chloro-6-methoxycarbonyl pyrimidine] it was 0%.
Same read-out and setting: the same measure for `COC(=O)c1nc(-c2csc3ccc(C)cc23)nc(N)c1Cl` [Compound 2-57, 4-amino-5-chloro-6-methoxycarbonyl-2-(5-methylbenz-[b]thiophen-3-yl)-pyrimidine]: 0%.

For another test, the system named is Solanum nigrum (SOLNI). The description is as above. The test is classed as in vivo. As to conditions: 312 h, 1000 g/ha, after 13 days, 100=total damage, 0=no damage, read-out: Percentage damage caused to weed species SOLNI. The protocol: as §1, §2
Consider `COC(=O)c1nc(-c2ccoc2)nc(N)c1Cl` [Compound 2-34, 4-Amino-5-chloro-2-(furan-3-yl)-6-methoxycarbonyl pyrimidine], for which the pest or weed control at 1000 g/ha came to 0%.
Still for that read-out and setting: in the case of `COC(=O)c1nc(-c2cc3ccccc3s2)nc(N)c1Cl` [Compound 2-54, 4-Amino-2-(benzothiophen-2-yl)-5-chloro-6-methoxycarbonyl pyrimidine] it was 20%.
Same read-out and setting: in the case of `COC(=O)c1nc(-c2csc3ccccc23)nc(N)c1Cl` [Compound 2-56, 4-Amino-2-(benzothiophen-3-yl)-5-chloro-6-methoxycarbonyl pyrimidine] it was 0%; in that of `COC(=O)c1nc(-c2csc3ccc(C)cc23)nc(N)c1Cl` [Compound 2-57, 4-amino-5-chloro-6-methoxycarbonyl-2-(5-methylbenz-[b]thiophen-3-yl)-pyrimidine], 0%.

For another test, the system named is Alopecurus myosuroides (ALOMY). Kind of test: Post-emergence biological efficacy, glasshouse pot test. It counts as in vivo. As to conditions: 312 h, 1000 g/ha, after 13 days, 100=total damage, 0=no damage, read-out: Percentage damage caused to weed species ALOMY. The protocol:
as §1, with “8 days” for “one day”
(§3) The test plants were then grown on under controlled conditions in a glasshouse (at 24/16° C., day/night; 14 hours light; 65% humidity) and watered twice daily. After 13 days the test was evaluated (100=total damage to plant; 0=no damage to plant).
For the compound `COC(=O)c1nc(-c2ccoc2)nc(N)c1Cl` [Compound 2-34, 4-Amino-5-chloro-2-(furan-3-yl)-6-methoxycarbonyl pyrimidine], the pest or weed control at 1000 g/ha was 10%.
The same measure, in the same setting: the same measure for `COC(=O)c1nc(-c2cc3ccccc3s2)nc(N)c1Cl` [Compound 2-54, 4-Amino-2-(benzothiophen-2-yl)-5-chloro-6-methoxycarbonyl pyrimidine]: 0%.
The same measure, in the same setting: in the case of `COC(=O)c1nc(-c2csc3ccccc23)nc(N)c1Cl` [Compound 2-56, 4-Amino-2-(benzothiophen-3-yl)-5-chloro-6-methoxycarbonyl pyrimidine] it was 20%; in that of `COC(=O)c1nc(-c2csc3ccc(C)cc23)nc(N)c1Cl` [Compound 2-57, 4-amino-5-chloro-6-methoxycarbonyl-2-(5-methylbenz-[b]thiophen-3-yl)-pyrimidine], 0%.

Another test relates to Amaranthus retroflexus (AMARE). Described as above. The test is classed as in vivo. Particulars: 312 h, 1000 g/ha, after 13 days, 100=total damage, 0=no damage, read-out: Percentage damage caused to weed species AMARE. The protocol:
as §1, with “8 days” for “one day”
as §3
`COC(=O)c1nc(-c2ccoc2)nc(N)c1Cl` [Compound 2-34, 4-Amino-5-chloro-2-(furan-3-yl)-6-methoxycarbonyl pyrimidine]: the pest or weed control at 1000 g/ha came to 30%.
Still for that read-out and setting: in the case of `COC(=O)c1nc(-c2cc3ccccc3s2)nc(N)c1Cl` [Compound 2-54, 4-Amino-2-(benzothiophen-2-yl)-5-chloro-6-methoxycarbonyl pyrimidine] it was 70%; in that of `COC(=O)c1nc(-c2csc3ccccc23)nc(N)c1Cl` [Compound 2-56, 4-Amino-2-(benzothiophen-3-yl)-5-chloro-6-methoxycarbonyl pyrimidine], 100%; in that of `COC(=O)c1nc(-c2csc3ccc(C)cc23)nc(N)c1Cl` [Compound 2-57, 4-amino-5-chloro-6-methoxycarbonyl-2-(5-methylbenz-[b]thiophen-3-yl)-pyrimidine], 0%.

Another test has as its system Echinochloa crus-galli (ECHCG). The test is described as above. It counts as in vivo. As to conditions: 312 h, 1000 g/ha, after 13 days, 100=total damage, 0=no damage, read-out: Percentage damage caused to weed species ECHCG. The procedure: as §1, with “8 days” for “one day”
as §3
As to `COC(=O)c1nc(-c2ccoc2)nc(N)c1Cl` [Compound 2-34, 4-Amino-5-chloro-2-(furan-3-yl)-6-methoxycarbonyl pyrimidine], the pest or weed control at 1000 g/ha turned out to be 0%.
On the same count and under the same terms, in the case of `COC(=O)c1nc(-c2cc3ccccc3s2)nc(N)c1Cl` [Compound 2-54, 4-Amino-2-(benzothiophen-2-yl)-5-chloro-6-methoxycarbonyl pyrimidine] it was 70%.
`COC(=O)c1nc(-c2csc3ccccc23)nc(N)c1Cl` [Compound 2-56, 4-Amino-2-(benzothiophen-3-yl)-5-chloro-6-methoxycarbonyl pyrimidine]: the pest or weed control at 1000 g/ha came to 40%.
On the same count and under the same terms, in the case of `COC(=O)c1nc(-c2csc3ccc(C)cc23)nc(N)c1Cl` [Compound 2-57, 4-amino-5-chloro-6-methoxycarbonyl-2-(5-methylbenz-[b]thiophen-3-yl)-pyrimidine] it was 0%.

The next test concerns Ipomea hederaceae (IPOHE). The test is described as above. The test is classed as in vivo. Particulars: Ipomoea hederacea, 312 h, 1000 g/ha, after 13 days, 100=total damage, 0=no damage, read-out: Percentage damage caused to weed species IPONE. The procedure: as §1, with “8 days” for “one day”
as §3
Regarding `COC(=O)c1nc(-c2ccoc2)nc(N)c1Cl` [Compound 2-34, 4-Amino-5-chloro-2-(furan-3-yl)-6-methoxycarbonyl pyrimidine], the pest or weed control at 1000 g/ha was 50%.
Still for that read-out and setting: in the case of `COC(=O)c1nc(-c2cc3ccccc3s2)nc(N)c1Cl` [Compound 2-54, 4-Amino-2-(benzothiophen-2-yl)-5-chloro-6-methoxycarbonyl pyrimidine] it was 80%.
Same read-out and setting: in the case of `COC(=O)c1nc(-c2csc3ccccc23)nc(N)c1Cl` [Compound 2-56, 4-Amino-2-(benzothiophen-3-yl)-5-chloro-6-methoxycarbonyl pyrimidine] it was 20%.
Same read-out and setting: the same measure for `COC(=O)c1nc(-c2csc3ccc(C)cc23)nc(N)c1Cl` [Compound 2-57, 4-amino-5-chloro-6-methoxycarbonyl-2-(5-methylbenz-[b]thiophen-3-yl)-pyrimidine]: 20%.

In the next test the test system is Setaria faberi (SETFA). Described as above. The test is classed as in vivo. Particulars: 312 h, 1000 g/ha, after 13 days, 100=total damage, 0=no damage, read-out: Percentage damage caused to weed species SETFA. The protocol: as §1, with “8 days” for “one day”
as §3
As for `COC(=O)c1nc(-c2ccoc2)nc(N)c1Cl` [Compound 2-34, 4-Amino-5-chloro-2-(furan-3-yl)-6-methoxycarbonyl pyrimidine], the pest or weed control at 1000 g/ha came out at 0%.
On the same count and under the same terms, in the case of `COC(=O)c1nc(-c2cc3ccccc3s2)nc(N)c1Cl` [Compound 2-54, 4-Amino-2-(benzothiophen-2-yl)-5-chloro-6-methoxycarbonyl pyrimidine] it was 50%; in that of `COC(=O)c1nc(-c2csc3ccccc23)nc(N)c1Cl` [Compound 2-56, 4-Amino-2-(benzothiophen-3-yl)-5-chloro-6-methoxycarbonyl pyrimidine], 10%.
In the case of `COC(=O)c1nc(-c2csc3ccc(C)cc23)nc(N)c1Cl` [Compound 2-57, 4-amino-5-chloro-6-methoxycarbonyl-2-(5-methylbenz-[b]thiophen-3-yl)-pyrimidine], the pest or weed control at 1000 g/ha was 0%.

Another test deals with Solanum nigrum (SOLNI). The test is described as above. It counts as in vivo. As to conditions: 312 h, 1000 g/ha, after 13 days, 100=total damage, 0=no damage, read-out: Percentage damage caused to weed species SOLNI. The procedure:
as §1, with “8 days” for “one day”
as §3
`COC(=O)c1nc(-c2ccoc2)nc(N)c1Cl` [Compound 2-34, 4-Amino-5-chloro-2-(furan-3-yl)-6-methoxycarbonyl pyrimidine]: the pest or weed control at 1000 g/ha came to 10%.
Turning to `COC(=O)c1nc(-c2cc3ccccc3s2)nc(N)c1Cl` [Compound 2-54, 4-Amino-2-(benzothiophen-2-yl)-5-chloro-6-methoxycarbonyl pyrimidine], the pest or weed control at 1000 g/ha stood at 40%.
Same read-out and setting: in the case of `COC(=O)c1nc(-c2csc3ccccc23)nc(N)c1Cl` [Compound 2-56, 4-Amino-2-(benzothiophen-3-yl)-5-chloro-6-methoxycarbonyl pyrimidine] it was 40%; in that of `COC(=O)c1nc(-c2csc3ccc(C)cc23)nc(N)c1Cl` [Compound 2-57, 4-amino-5-chloro-6-methoxycarbonyl-2-(5-methylbenz-[b]thiophen-3-yl)-pyrimidine], 0%.
